These results are taken from US6949553B2, “Aliphatic compounds, their synthesis method, and utilization of the same” (Maruha Corporation, priority 2001, dated 2005).

Structures are written as SMILES.

What is called IC50 is the concentration needed to halve the response being measured.

Assay [1] concerns neutrophils and vascular endothelial cells. The assay is described as follows: Pseudo-blood vessel in vitro inflammation model (TNFα, neutrophil migration through endothelial cell layer). The class given is cell-based, bovine. To be noted: 30, 3 or 0.3 μM, TNFα 50 ng/ml.
Experimental: A layer of bovine endothelial cells was adhered to the bottom surface of the membrane, and cultured for 80 minutes at 37° C. in 5% CO2. Then, a suspension of fluorescence-labeled neutrophils was added to the upper chamber of the transwell. Simultaneously, TNFα was suspended in the cell suspension in the upper chamber to an end concentration of 50, 25 or 17 ng/ml.
That is, in the above model, the phenomena that neutrophils pass from the upper chamber through the vascular endothelial cell layer into the lower chamber, and neutrophils adhere to the endothelial cell layer mimic a state where in response to TNFα within the blood vessel, neutrophils migrate from within the blood vessel to the site of inflammation.
In the same manner as described above, the number of neutrophils passing from the upper chamber through the vascular endothelial cell layer into the lower chamber, and the number of neutrophils adhering to the endothelial cell layer were measured. Based on these numbers, the neutrophil migration rate (%) was calculated. The neutrophil migration rate was expressed as the relative value (%) of the number of the migrating neutrophils in the drug treatment group with respect to the number of the migrating neutrophils in the negative control group (physiological saline).
Assay [2] deals with platelets. The assay is described as follows: Collagen-induced in vitro platelet aggregation (rabbit PRP, transmittance). Format: cell-based. To be noted: Oryctolagus cuniculus; collagen 0.2 μg/ml, rabbit platelet rich plasma; read-out: 50% Inhibition Point for Platelet Aggregation, IC50. Here is the method:
Collagen-induced in vitro Platelet Aggregation
It was studied whether the compounds of the present invention would inhibit platelet aggregation induced by collagen.
These compounds were each diluted with physiological saline to end concentrations of 1×10^−7M, 3×10^−7M, 1×10^−6M, 3×10^−6M, 1×10^−5M, 3×10^−5M and 1×10^−4M.
Indomethacin was used as a positive control. Indomethacin was dissolved in methanol, and then diluted with physiological saline to end concentrations of 1×10^−6M, 3×10^−6M and 1×10^−5M.
Physiological saline was used as a negative control.
The tube was centrifuged at 900 rpm for 10 minutes at room temperature to separate the supernatant (PRP, platelet rich plasma fraction). The residue was further centrifuged for 15 minutes at 2,500 rpm to obtain the supernatant (PPP, platelet poor plasma fraction).
PPP (platelet poor plasma fraction) was placed in a cuvette, and the cuvette was mounted in a 37° C. incubator for PPP of an aggregometer (Hematracer 240 12ch, manufactured by MCM). Then, 200 μl of PRP (platelet rich plasma fraction) was added into a cuvette, and the cuvette was mounted in a reactor for PRP. With stirring by a magnetic stirrer, the transmittance of PPP was corrected to T650 nm=100%, and the transmittance of PRP was corrected to T650 nm=0%, by automatic adjustment for 30 seconds.
The study substance (20 μl) at a predetermined concentration was added into the cuvette and, 30 seconds later, 20 μl (end concentration 0.2 μg/ml) of collagen (produced by MCM) was added. Subsequent changes in the transmittance were recorded for 5 minutes. When the platelets are aggregated, the transmittance increases. When aggregation peaked, the transmittance T at maximum aggregation was compared with the transmittance T0 of the negative control, and the aggregation inhibition rate was expressed as percentage using the following equation: Aggregation inhibition rate=(1−T/T0)×100
From an aggregation inhibition curve obtained, a regression equation was derived by approximation of the linear type.

In assay [3] the test system is platelets. Put plainly: Ex vivo platelet aggregation after intravenous administration. The class given is in vivo, rat. The settings on record: 0.1 mg/kg intravenous, blood 1 hour after administration, collagen 1 to 6 μg/ml. How it is done: The blood was withdrawn at three points in time, 10 minutes, 30 minutes and 1 hour after administration. Platelets were prepared from the blood samples taken, and they were used to study the aggregation rates when platelet aggregation was induced by 0.3 to 6 μg/ml of collagen. In a control group, the aggregation rates after administration of a solvent (physiological saline) were measured.
It was studied whether the compound of the present invention would suppress ex vivo platelet aggregation dose-dependently.
The blood was withdrawn 60 minutes after administration, and platelets were prepared from the blood. Platelet aggregation was induced by 4 to 7 μg/ml of collagen using the platelets.
The blood was withdrawn 1 hour after intravenous administration, and platelets were prepared from the blood. Platelet aggregation was induced by 1 to 6 μg/ml of collagen using the platelets.

In assay [4] the test system is platelets. Put plainly: In vitro platelet aggregation by various inducers, rabbit platelets. The class given is cell-based. To be noted: Oryctolagus cuniculus, Platelet; inducer collagen (0.1 to 1 μg/ml), rabbit platelets; read-out: 50% inhibition point, IC50, for in vitro platelet aggregation. The text has this: (§1) Next, the suppression of platelet aggregation by the compounds of the present invention was studied in the same manner as described above with the use of not only collagen, but also arachidonic acid, ADP, thrombin, serotonin, epinephrine and U46619 (pseudo-thromboxane A2 substance) as inducers.
(§2) As platelets, platelets prepared from rats and guinea pigs as well as rabbits were also used.
(§3) Collagen and ADP were purchased from MCM, and used in accordance with the method of preparation described in the manuals attached to the purchased products. Serotonin, epinephrine and thrombin were purchased from Sigma, and used as solutions in physiological saline for injection (Otsuka Pharmaceutical Factory). Arachidonic acid was purchased from Cayman, and dispersed in physiological saline for injection (Otsuka Pharmaceutical Factory) with the use of an immersion type ultrasonic oscillator (US150, NIPPON SEIKI, tip end diameter ca. 3.5 mm). U46619 (pseudo-thromboxane substance) was purchased from FUNAKOSHI, and dissolved in physiological saline for injection (Otsuka Pharmaceutical Factory) when used.
(§4) Collagen (0.1 to 1 μg/ml), arachidonic acid (1 mM), ADP (1 μM), thrombin (1 U/ml), serotonin (100 μM), epinephrine (100 to 200 μM), and U46619 (3 μM) were used.
(§5) Indomethacin was used as a positive control for measuring the suppression of platelet aggregation induced by collagen.

For assay [5], the system named is platelets. The assay is described as follows: In vitro platelet aggregation by various inducers, guinea pig platelets. The class given is cell-based. To be noted: Cavia porcellus, inducer collagen (0.1 to 1 μg/ml), guinea pig platelets, read-out: 50% inhibition point, IC50, for in vitro platelet aggregation.
Excerpt: as §1, §2, §3, §4, §5

Assay [6] concerns platelets. Put plainly: In vitro platelet aggregation by various inducers, rat platelets. The class given is cell-based. The settings on record: inducer collagen (0.1 to 1 μg/ml), rat platelets, read-out: 50% inhibition point, IC50, for in vitro platelet aggregation.
Excerpt: as §1, §2, §3, §4, §5

Regarding `CC/C=C\C/C=C\C/C=C\C/C=C\C/C=C\C/C=C\CCC(=O)NN1CCN(C)CC1` [Compound 1, (4Z,7Z,10Z,13Z,16Z,19Z)-N-(4-methylpiperazin-1-yl)docosahexaenoamide], the “neutrophil passage through vascular endothelial cell layer (in words)” value in assay [1] is reported as “suppressed neutrophil passage dose-dependently”. In addition, in the assay on platelets [2], the half-inhibitory concentration (IC50) came out at 7.9 µM.

For `CCCCCCCC(=O)NCCC1CCCN1C` (stereo not drawn) [Compound 3, N-[2-(1-methylpyrrolidin-2-yl)ethyl]caprylamide], the IC50 in the assay with platelets [2] turned out to be 8.1 µM.

On to `CCCCCCCCCCCCCC(=O)NCCC1CCCN1C` (stereo not drawn) [Compound 4, N-[2-(1-methylpyrrolidin-2-yl)ethyl]myristamide], for which the IC50 with platelets [2] was determined as 42 µM.

Consider `CCCCCCCC/C=C\CCCCCCCC(=O)NCCC1CCCN1C` (stereo not drawn) [Compound 5, 9Z-N-[2-(1-methylpyrrolidin-2-yl)ethyl]oleamide], for which, in the assay on platelets [3], the “ex vivo platelet aggregation (in words)” value is listed as “suppress platelet aggregation”. Also, the IC50 in the assay on platelets [2] was found to be 5.6 µM.

On to `CCCCC/C=C\C/C=C\CCCCCCCC(=O)NCCC1CCCN1C` (stereo not drawn) [Compound 6, (9Z,12Z)-N-[2-(1-methylpyrrolidin-2-yl)ethyl]linoleamide], for which the IC50 in the assay with platelets [2] came out at 2.1 µM.

On to `CC/C=C\C/C=C\C/C=C\CCCCCCCC(=O)NCCC1CCCN1C` (stereo not drawn) [Compound 7, (9Z,12Z,15Z)-N-[2-(1-methylpyrrolidin-2-yl)ethyl]linolenamide], for which the IC50 with platelets [2] was determined as 3.7 µM.

As to `CC/C=C\C/C=C\C/C=C\C/C=C\C/C=C\CCCC(=O)NCCC1CCCN1C` (stereo not drawn) [Compound 8, (5Z,8Z,11Z,14Z,17Z)-N-[2-(1-methylpyrrolidin-2-yl)ethyl]eicosapentaenoamide], in the assay with platelets [2], the IC50 amounted to 3.7 µM.

For the compound `CC/C=C\C/C=C\C/C=C\C/C=C\C/C=C\C/C=C\CCC(=O)NCC1CCCN1C` (stereo not drawn) [Compound 9, (4Z,7Z,10Z,13Z,16Z,19Z)-N-[(1-methylpyrrolidin-2-yl)methyl]docosahexaenoamide], in the assay with platelets [2], the 50% inhibitory concentration (IC50) turned out to be 1.5 µM.

Regarding `CC/C=C\C/C=C\C/C=C\C/C=C\C/C=C\C/C=C\CCC(=O)NCCCC1CCCN1C` (stereo not drawn) [Compound 11, (4Z,7Z,10Z,13Z,16Z,19Z)-N-[3-(1-methylpyrrolidin-2-yl)propyl]docosahexaenoamide], the IC50 in the assay with platelets [2] was found to be 4.2 µM.

For `COc1ccc2c(c1)c(CC(=O)O)c(C)n2C(=O)c1ccc(Cl)cc1` [Indomethacin, reference compound], the IC50 worked out at 4 µM with platelets [4], 29 µM with platelets [5], 18 µM in the assay on platelets [6] and 5 µM with platelets [2].
